Results as given in patent US20210322331A1, “NANOCAPSULES FOR THE DELIVERY OF CELL MODULATING AGENTS” (CSL BEHRING LLC, priority 2018, published 2021).

Legend:
Type in all cases: cell-based
K562 cells = assay: Negative selection with MTX on transduced or transfected K562 cells; conditions: 0.3 uM of MTX
Method: FIGS. 9A and 9B illustrate the effect of negative selection with 300 nM of MTX on K562 cells transduced with sh7-GFP lentiviral vector or transfected with RNP targeting HPRT1 nanocapsules.
Transduced or transfected K562 cells (such as those from Example 5) were cultured with or without MTX from day 0 to day 14. The medium was refreshed every 3 to 4 days. GFP was analyzed on flow machine and InDel % was analyzed by T7E1 assay. […] FIG. 9B illustrated that the transfected K562 cells were eliminated under treatment with 0.3 uM of MTX at a faster pace as compared with the HPRT-KD population.

CEM cells = assay: Negative selection with MTX or MPA on transduced or transfected CEM cells; conditions: for GFP-population of transduced cells (HPRT knockdown): FIG. 10A, CEM experiment; for HPRT knockout population of CEM cells: FIG. 10B
Method: FIGS. 10A and 10B illustrate the effect of negative selection with 300 nM of MTX, 1 uM and 10 uM of MPA on CEM cells transduced with sh7-GFP lentiviral vector or transfected with RNP targeting HPRT1 nanocapsules.
Transduced or transfected CEM cells (such as those from Example 6) were cultured with or without MTX from day 0 to day 14. The medium was refreshed every 3 to 4 days. GFP was analyzed on flow machine and InDel % was analyzed by T7E1 assay.

CCR5 = CCR5 staining with 6-TG selection in mPB CD34+ cells; conditions: 100 nM of 6TG day 4 to 14, flow at day 14; without 6TG 44.9%
Method: Assay protocols and results for CCR5 staining with 6-TG selection in sh734-KI mPB CD34+ cells (i.e. Mobilized CD34+ cells cultured with TPO/SCF/FLT3/IL3 and Knock-out of CCR5 and knock-in of sh734 in CD34+ cells)
(§1) Nanocapsules were formulated to contain CRISPR/Cas9/gRNAR targeting CCR5/mi-sh734 expression cassette HDR template CRISPR machinery complex (see methods). Cd34+ cells were thawed and pre-stimulated in x-vivo 10 with 100 ng/mL of TPO/SCF/FLT4/IL3 for overnight. Then 500 ng of Cas9-CCR5-gRNA-3G-mi-sh734 nanocapsules were added into 5×10^4 cells per well and 100 nM of 6TG was added into culture media from day 4 to 14. The flow analysis was carried out at day 14.
as §1, with “6-TG selection was examined using VCN/InDel data. mPB CD34+ were transfected/transduced as indicated in FIG. 8A Nanocapsules” for “Nanocapsules”, “prestimulated” for “pre-stimulated”, “X-vivo” for “x-vivo”

CN(Cc1cnc2nc(N)nc(N)c2n1)c1ccc(C(=O)N[C@@H](CCC(=O)O)C(=O)O)cc1 [MTX, methotrexate]
GFP-population of transduced K562 cells (HPRT knockdown) (K562 cells; FIG. 9A, day 0 to day 14): decreased | transfected (HPRT knockout) K562 cells (K562 cells; FIG. 9B, compared with the HPRT-KD population): eliminated | GFP-population of transduced cells (HPRT knockdown) (CEM cells; 0.3 uM of MTX): decreased | HPRT knockout population of CEM cells (CEM cells; 0.3 uM of MTX): eliminated at a faster pace

Nc1nc2nc[nH]c2c(=S)[nH]1 [6TG, 6-thioguanine]
CCR5+ of CD34+ cells with 6TG treatment (no nanocapsule) (CCR5): 43.4%

COc1c(C)c2c(c(O)c1C/C=C(\C)CCC(=O)O)C(=O)OC2 [MPA, mycophenolic acid]
GFP-population of transduced cells (HPRT knockdown) (CEM cells; 1 uM of MPA): decreased | GFP-population of transduced cells (HPRT knockdown) (CEM cells; 10 uM of MPA): decreased | HPRT knockout population of CEM cells (CEM cells; 1 uM of MPA): eliminated at a faster pace | HPRT knockout population of CEM cells (CEM cells; 10 uM of MPA): eliminated at a faster pace
